Results from patent publication US20120071469A1 (priority 2009, published 2012).
pIC50: −log10 of the molar value. Counter-ions that a name gives are not always drawn.

Molecular target: α7-subtype of nicotinic receptors (Rattus norvegicus, UniProt Q05941)
Experiment: biochemical
Format: binding

α7-subtype of nicotinic receptors, sequence (Q05941 23-502): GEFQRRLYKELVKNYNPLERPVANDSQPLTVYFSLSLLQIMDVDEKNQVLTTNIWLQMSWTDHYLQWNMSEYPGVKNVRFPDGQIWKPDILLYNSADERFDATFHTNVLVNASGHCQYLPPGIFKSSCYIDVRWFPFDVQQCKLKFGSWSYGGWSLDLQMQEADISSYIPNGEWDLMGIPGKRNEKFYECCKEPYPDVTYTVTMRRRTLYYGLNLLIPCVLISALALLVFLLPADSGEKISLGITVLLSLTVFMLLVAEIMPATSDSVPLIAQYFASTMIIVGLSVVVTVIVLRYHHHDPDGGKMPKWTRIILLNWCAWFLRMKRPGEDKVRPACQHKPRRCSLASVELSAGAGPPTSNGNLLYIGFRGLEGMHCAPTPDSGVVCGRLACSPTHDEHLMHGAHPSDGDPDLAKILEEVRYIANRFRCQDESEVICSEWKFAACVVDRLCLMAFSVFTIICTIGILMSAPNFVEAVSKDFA

SMILES: c1cc2c(cc1-c1nnc(N3CCN4CCC3C4)o1)OCO2 (stereo not shown) [Compound I, 4-(5-Benzo[1,3]dioxol-5-yl-[1,3,4]oxadiazol-2-yl)-1,4-diaza-bicyclo[3.2.1]octane fumaric acid salt]
- pIC50: > 7.00
